The NIST ThermoML archive (doi:10.1021/je7006692)

Assay: relative permittivity at zero frequency (dimensionless)
Conditions: Liquid

Cc1ccccc1 [toluene]
Reentrant cavity resonator
Conditions	relative permittivity at zero frequency
290.63 K, 100 kPa	2.40453
290.65 K, 100 kPa	2.40448
290.69 K, 2170 kPa	2.41272
290.77 K, 4240 kPa	2.41409
290.81 K, 6310 kPa	2.41721
290.83 K, 8370 kPa	2.4202
290.87 K, 12510 kPa	2.42629
290.88 K, 16100 kPa	2.43136
290.9 K, 16650 kPa	2.4322
291.15 K, 100 kPa	2.3983
292.65 K, 100 kPa	2.40346
294.8 K, 100 kPa	2.39092
310.68 K, 100 kPa	2.35675
310.79 K, 100 kPa	2.35646
311.94 K, 100 kPa	2.35363
314.47 K, 100 kPa	2.3479
315.68 K, 100 kPa	2.34035
315.77 K, 100 kPa	2.33999
315.78 K, 1140 kPa	2.34185
315.78 K, 8370 kPa	2.35428
315.79 K, 2170 kPa	2.34366
315.79 K, 3200 kPa	2.34545
315.79 K, 4240 kPa	2.34729
315.79 K, 6310 kPa	2.35078
315.79 K, 12510 kPa	2.36095
315.79 K, 16650 kPa	2.3674
315.79 K, 19410 kPa	2.37152
320.64 K, 100 kPa	2.32926
320.66 K, 1140 kPa	2.33114
324.52 K, 100 kPa	2.32053
324.53 K, 1140 kPa	2.32241
324.54 K, 2170 kPa	2.32435
324.54 K, 3200 kPa	2.32625
324.54 K, 4240 kPa	2.32811
324.54 K, 6310 kPa	2.33179
324.58 K, 8370 kPa	2.33528
324.61 K, 12510 kPa	2.34222
324.62 K, 16650 kPa	2.34897
339.31 K, 100 kPa	2.28784
339.35 K, 2170 kPa	2.2919
339.38 K, 4240 kPa	2.29596
339.38 K, 6310 kPa	2.29992
339.39 K, 8370 kPa	2.3038
339.41 K, 12510 kPa	2.31127
339.41 K, 16650 kPa	2.31844
357.44 K, 6310 kPa	2.26156
357.45 K, 2170 kPa	2.25261
357.45 K, 4240 kPa	2.25717
357.46 K, 100 kPa	2.24793
357.52 K, 8370 kPa	2.26578
357.54 K, 12510 kPa	2.274
357.55 K, 16650 kPa	2.28185
390.53 K, 170 kPa	2.17781
390.53 K, 2170 kPa	2.18342
390.59 K, 100 kPa	2.17698
390.59 K, 4240 kPa	2.18899
390.61 K, 6310 kPa	2.19431
390.63 K, 8370 kPa	2.19969
390.65 K, 12510 kPa	2.20969
390.68 K, 16650 kPa	2.21925
405.84 K, 2170 kPa	2.14947
406.3 K, 6310 kPa	2.16081
406.32 K, 4240 kPa	2.15467
406.37 K, 8370 kPa	2.16653
406.54 K, 12510 kPa	2.17721
406.64 K, 16650 kPa	2.18731

Conditions	relative permittivity at zero frequency
297.37 K, 34905 kPa	2.443
297.37 K, 41879 kPa	2.4564
297.38 K, 27906 kPa	2.4276
297.39 K, 20942 kPa	2.4127
297.4 K, 13927 kPa	2.3962
297.41 K, 6919 kPa	2.3777
